Laboratory results: ChEMBL document CHEMBL1131258, “Synthesis and glutathione S-transferase structure-affinity relationships of nonpeptide and peptidase-stable glutathione analogues” (J Med Chem, 1998)

System: glutathione S-transferase (Schistosoma japonicum)
Assay: Affinity towards recombinant Glutathione S-transferase (GST) Enzyme; NA indicates No affinity; call rule not given here

With `O=C(O)CC/C=C/C(CO)CCCCC(=O)O` (stereo not given) the IC50 was “Not Active”.

In the case of `O=C(O)CC/C=C/C(CS)CCCCC(=O)O` (stereo not given), the IC50 was “Not Active”.

In the case of `O=C(O)CCCCCCC(CS)CCCC(=O)O` (stereo not given), the IC50 was “Not Active”.

In the case of `O=C(O)CCCCC(CS)CCCCC(=O)O`, the IC50 was “Not Active”.

For `O=C(O)CCCCCC(CS)CCCCC(=O)O` (stereo not given), the IC50 was “Not Active”.
